Results published in the supplement of paper PMC11781733.

Tests used:
Settings in all cases: exposure time: 15 min to 3 h acute
Dugesia japonica [1] = experiment: crawl-out incidence (% planarians); higher = higher incidence or increase relative to vehicle control
Procedure: (§1)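 Adult asexual Dugesia japonica planarians (1 per well, 48-well plate, n=24 over technical triplicates) were exposed acutely (15 min to 3 h) to each compound (0.5% DMSO or water vehicle) and screened on a robotic platform for crawl-out, stickiness, body shape, phototaxis, noxious-heat scrunching and locomotion endpoints. Binary endpoints are incidence rate x100. Continuous endpoints are the median response normalised to the plate vehicle median, as % change or difference. Negative incidences after vehicle subtraction were set to 0.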

Dugesia japonica [2] = experiment: speed in dark vs vehicle (% change vs vehicle); higher = higher incidence or increase relative to vehicle control
Procedure: as §1, with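 “x100 normalised to in-plate vehicle controls.” for “x100.”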

Dugesia japonica [3] = experiment: C-shape incidence (% planarians (vehicle-normalised)); higher = higher incidence or increase relative to vehicle control
Procedure: as §1, with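 “x100 normalised to in-plate vehicle controls.” for “x100.”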

Dugesia japonica [4] = experiment: corkscrew incidence (% planarians (vehicle-normalised)); higher = higher incidence or increase relative to vehicle control
Procedure: as §1, with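 “x100 normalised to in-plate vehicle controls.” for “x100.”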

Dugesia japonica [5] = experiment: stickiness incidence (% planarians (vehicle-normalised)); higher = higher incidence or increase relative to vehicle control
Procedure: as §1, with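 “x100 normalised to in-plate vehicle controls.” for “x100.”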

Dugesia japonica [6] = experiment: hyperkinesis incidence (% planarians (vehicle-normalised)); higher = higher incidence or increase relative to vehicle control
Procedure: as §1, with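 “x100 normalised to in-plate vehicle controls.” for “x100.”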

Dugesia japonica [7] = experiment: speed first 30 s blue light vs vehicle (% change vs vehicle); higher = higher incidence or increase relative to vehicle control
Procedure: as §1, with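 “x100 normalised to in-plate vehicle controls.” for “x100.”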

Dugesia japonica [8] = experiment: speed second 30 s blue light vs vehicle (% change vs vehicle); higher = higher incidence or increase relative to vehicle control
Procedure: as §1, with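 “x100 normalised to in-plate vehicle controls.” for “x100.”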

Dugesia japonica [9] = experiment: pharynx extrusion incidence (% planarians (vehicle-normalised)); higher = higher incidence or increase relative to vehicle control
Procedure: as §1, with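 “x100 normalised to in-plate vehicle controls.” for “x100.”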

Dugesia japonica [10] = experiment: loss of phototaxis incidence (% planarians (vehicle-normalised)); higher = higher incidence or increase relative to vehicle control
Procedure: as §1, with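 “x100 normalised to in-plate vehicle controls.” for “x100.”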

Dugesia japonica [11] = experiment: total locomotor bursts minus vehicle (bursts difference vs vehicle); higher = higher incidence or increase relative to vehicle control
Procedure: as §1, with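 “x100 normalised to in-plate vehicle controls.” for “x100.”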

Dugesia japonica [12] = experiment: noxious heat displacement strength vs vehicle (% change vs vehicle); higher = higher incidence or increase relative to vehicle control
Procedure: as §1, with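 “x100 normalised to in-plate vehicle controls.” for “x100.”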

Dugesia japonica [13] = experiment: contracted body shape incidence (% planarians (vehicle-normalised)); higher = higher incidence or increase relative to vehicle control
Procedure: as §1, with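 “x100 normalised to in-plate vehicle controls.” for “x100.”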

Dugesia japonica [14] = experiment: anxiety (time in outer well region) vs vehicle (% change vs vehicle); higher = higher incidence or increase relative to vehicle control
Procedure: as §1, with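 “x100 normalised to in-plate vehicle controls.” for “x100.”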

Dugesia japonica [15] = experiment: any abnormal body shape incidence (% planarians (vehicle-normalised)); higher = higher incidence or increase relative to vehicle control
Procedure: as §1, with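 “x100 normalised to in-plate vehicle controls.” for “x100.”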

Dugesia japonica [16] = experiment: resting fraction in dark vs vehicle (difference in fraction x100 vs vehicle); higher = higher incidence or increase relative to vehicle control
Procedure: as §1, with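 “x100 normalised to in-plate vehicle controls.” for “x100.”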

Dugesia japonica [17] = experiment: loss of heat-induced scrunching incidence (% planarians (vehicle-normalised)); higher = higher incidence or increase relative to vehicle control
Procedure: as §1, with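 “x100 normalised to in-plate vehicle controls.” for “x100.”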

Dugesia japonica [18] = experiment: resting fraction in blue light vs vehicle (difference in fraction x100 vs vehicle); higher = higher incidence or increase relative to vehicle control
Procedure: as §1, with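 “x100 normalised to in-plate vehicle controls.” for “x100.”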

Structure (SMILES) | crawl-out incidence (Dugesia japonica [1]) | speed in dark (Dugesia japonica [2]) | C-shape incidence (Dugesia japonica [3]) | corkscrew incidence (Dugesia japonica [4]) | stickiness incidence (Dugesia japonica [5]) | hyperkinesis incidence (Dugesia japonica [6]) | speed first 30 s blue light (Dugesia japonica [7]) | speed second 30 s blue light (Dugesia japonica [8]) | pharynx extrusion incidence (Dugesia japonica [9]) | loss of phototaxis incidence (Dugesia japonica [10]) | total locomotor bursts minus vehicle (Dugesia japonica [11]) | noxious heat displacement strength (Dugesia japonica [12]) | contracted body shape incidence (Dugesia japonica [13]) | anxiety (Dugesia japonica [14]) | any abnormal body shape incidence (Dugesia japonica [15]) | resting fraction in dark (Dugesia japonica [16]) | loss of heat-induced scrunching incidence (Dugesia japonica [17]) | resting fraction in blue light (Dugesia japonica [18])
O=C1CCc2ccc(OCCCCN3CCN(c4cccc(Cl)c4Cl)CC3)cc2N1 [aripiprazole] (3.16 µM) | 0 | 27.4 | 0 | 0 | ≤ 0 | 4.17 | 18.9 | 8.71 | 0 | 45.8 | -2.5 | 0.14 | 0 | 0.35 | 4.17 | -2.43 | 4.17 | 0.05
O=C1CCc2ccc(OCCCCN3CCN(c4cccc(Cl)c4Cl)CC3)cc2N1 [aripiprazole] (10 µM) | 0 | -46.8 | 12.5 | 4.17 | ≤ 0 | 4.17 | -70.8 | -63.1 | 0 | 25 | 31 | -17.3 | 0 | -16.3 | 20.8 | 34.5 | 16.7 | 19.8
O=C1CCc2ccc(OCCCCN3CCN(c4cccc(Cl)c4Cl)CC3)cc2N1 [aripiprazole] (31.6 µM) | 0 | -62.3 | 62.5 | 4.17 | ≤ 0 | 12.5 | -79.9 | -81.8 | 4.17 | 25 | 53 | -38.6 | 0 | -46.5 | 70.8 | 56.6 | 70.8 | 32
O=C1CCc2ccc(OCCCCN3CCN(c4cccc(Cl)c4Cl)CC3)cc2N1 [aripiprazole] (100 µM) | 4.17 | -64.8 | 60.9 | 0 | ≤ 0 | 17.4 | -88.7 | -88.8 | 0 | 47.8 | 55 | -49 | 0 | -67.2 | 65.2 | 56.9 | 78.3 | 69.8
O=C(CCCN1CCC(O)(c2ccc(Br)cc2)CC1)c1ccc(F)cc1 [bromperidol] (3.16 µM) | 33.3 | -33.9 | 4.76 | 14.3 | ≤ 0 | 47.6 | -55.1 | -53.4 | 0 | ≤ 0 | 11 | -37 | 9.52 | -1.33 | 57.1 | 24 | 47.6 | 28.6
O=C(CCCN1CCC(O)(c2ccc(Br)cc2)CC1)c1ccc(F)cc1 [bromperidol] (10 µM) | 25 | -40.7 | 0 | 42.9 | ≤ 0 | 52.4 | -49.8 | -60.1 | 0 | ≤ 0 | 8 | -32.1 | 4.76 | 7.64 | 66.7 | 50.5 | 47.6 | 38
O=C(CCCN1CCC(O)(c2ccc(Br)cc2)CC1)c1ccc(F)cc1 [bromperidol] (31.6 µM) | 8.33 | -41 | 4.35 | 21.7 | ≤ 0 | 69.6 | -69 | -63.1 | 0 | ≤ 0 | 0.5 | -36.2 | 30.4 | 20.6 | 73.9 | 43.3 | 52.2 | 37.3
O=C(CCCN1CCC(O)(c2ccc(Br)cc2)CC1)c1ccc(F)cc1 [bromperidol] (100 µM) | 25 | -39.1 | 4.76 | 23.8 | ≤ 0 | 42.9 | -53.3 | -63.4 | 0 | ≤ 0 | 17 | -48 | 4.76 | 21.1 | 57.1 | 43.4 | 28.6 | 40.4
CC(NC(C)(C)C)C(=O)c1cccc(Cl)c1 (centres undefined) [bupropion] (31.6 µM) | 0 | -1.56 | 0 | 0 | ≤ 0 | 0 | -59.5 | -19.4 | 0 | 20.8 | -7.5 | -22.3 | 4.17 | 2.47 | 0 | 17.5 | 16.7 | 23.4
CC(NC(C)(C)C)C(=O)c1cccc(Cl)c1 (centres undefined) [bupropion] (100 µM) | 0 | -35.4 | 0 | 0 | 13 | 0 | 9.9 | 20.6 | 0 | 4.17 | -1 | -32.4 | 0 | 3.91 | 0 | 25.7 | 12.5 | -3.29
Cc1cc2c(s1)Nc1ccccc1N=C2N1CCN(C)CC1 [olanzapine] (10 µM) | 0 | -68 | 4.17 |  | ≤ 0 | 58.3 | -85.6 | -80.9 | 0 | 4.17 | 20 | -28.1 | 0 | -12.4 | 58.3 | 72.3 | 58.3 | 63.5
Cc1cc2c(s1)Nc1ccccc1N=C2N1CCN(C)CC1 [olanzapine] (31.6 µM) | 4.17 | -71.9 | 4.17 | 16.7 | 16.7 | 62.5 | -93.9 | -89.9 | 0 | 17.4 | 6 | -52.3 |  | 24.7 | 75 | 78.3 | 75 | 77.7
